Patent US20190106460A1, “BINDING INHIBITORS OF THE BETA. TRANSDUCIN REPEAT-CONTAINING PROTEIN” (priority 2011, published 2019)
Non-standard residues stand in square brackets, D forms with d. Residues, ends and D or L forms follow the SMILES beside them. Groups on a side chain read outwards from the residue. *: point of attachment. X3 = CC(C)CCC[C@@H](C)[C@H]1CCC2C3CC=C4C[C@@H](OC(=O)*)CC[C@]4(C)C3CC[C@@]21C; Benzenesulfonyl(4-OMe) = COc1ccc(S(=O)(=O)*)cc1; Phe(3-F) = N[C@@H](Cc1cccc(F)c1)C(=O)O; Ahx = NCCCCCC(=O)O

How the values were obtained:
[1] = test system: MCF7:GFP-PDCD4^WT; assay: Fluorescence reporter assay for PDCD4 accumulation, wild type; assay type: cell-based
Procedure: Fluorescence Reporter Assay for PDCD4 Accumulation
This assay uses two stable cell lines expressing PDCD4 fused to a GFP tag.
The two stable cell lines MCF7:GFP-PDCD4^WT and MCF7:GFP-PDCD4^S71A/S76Awere grown in 10 ml DMEM+10% FBS and 1% Pen/Strep supplemented with 2 mg/ml Geneticin at 37° C./5% CO2. These cell lines were nucleofected as described above except for the additional supplementation of all media with 2 mg/ml Geneticin.
Fluorescent Reporter Assay
The cells were fixed by removing the growth media and adding 3.7% Formaldehyde in PBS to the cells. The cells were then incubated at RT for 20 mins and the plates washed 3× in PBS.
DRAQ5 DNA stain was added to the cells in PBS at a concentration of 1:10000 and incubated at RT for 1 hour protecting from light. The plate was washed 3× in PBS and read on the Perkin Elmer OPERA platform using the nuclei counting algorithm F in both the 488 nm channel (GFP) and 640 nm channel (DRAQ5). DMSO was used as a negative control and 10 μM MG132 was used as a positive control. Error bars represent standard deviation from 6 replicates. The data are expressed as percentage activity with DMSO (WT)=0% and 10 μM MG132 (WT)=100% activity.
This confirms that the stabilisation resulting from the compounds is dependent on the βTrCP/PDCD4 interaction and is not due to another mechanism such as a global increase in protein production.

[2] = test system: PNT-1 cell line; assay: xCELLigence cell growth, non-malignant PNT-1; assay type: cell-based
Procedure: xCELLigence Method • Before starting the experiment add 50 μL of medium (RPMI 1640, 10% fetal bovine serum, 100 units/mL penicillin, 100 ug/mL streptomycin, and 2 mmol/L glutamine, all from GIBCO) to each well of 96 well E-plate (Roche) and place the plate in the xCELLigence platform to measure the background. • LNCaP/PNT-1 cells are seeded (LNCaPs 80000 cells/well; PNT1 3000 cells/well) in the plate in complete medium and equilibrated for 60 mins at RT before returning to the xCELLigence platform and incubating at 37° C./5% CO2. • 24 hrs after seeding, remove 100 μL of medium was removed from each well and cells were treated with compounds or DMSO diluted in 100 μL of OptiMEM (GIBCO). • Replace the plate in the xCELLigence platform • Cells growth can then be monitored in real-time by the cell index profile on the xCELLigence readout screen • Cell growth can be expressed as normalized cell index and doubling time/slope calculated using the RTCA software.
The susceptibility of cancer cell lines versus non-cancer cell lines following treatment with the compounds was also investigated.

COc1ccc(S(=O)(=O)N[C@H](CC(=O)O)C(=O)N[C@@H](CCC(=O)O)C(=O)NCC(=O)N[C@@H](Cc2cccc(F)c2)C(=O)N[C@@H](Cc2c[nH]c3ccccc23)C(=O)N[C@@H](CCC(=O)O)C(=O)NCCCCCC(=O)N[C@@H](CCCCNC(=O)CCCCCNC(=O)O[C@H]2CC[C@@]3(C)C(=CCC4C3CC[C@@]3(C)C4CC[C@@H]3[C@H](C)CCCC(C)C)C2)C(N)=O)cc1 (some centres unmarked) [UBP036, 4-(MeO)PhSO2-dEGF(3F)WE-Ahx-K(Ahx-Chol)-NH2] ({Benzenesulfonyl(4-OMe)}-[dD]EG[Phe(3-F)]WE[Ahx]K([Ahx-X3])-NH2)
accumulation of GFP-PDCD4, fluorescent reporter assay [1]: GFP-PDCD4 accumulation
cell growth, xCELLigence [2]: far less effect
